Source: EP1161438B1, “6-O-SUBSTITUTED MACROLIDES HAVING ANTIBACTERIAL ACTIVITY” (ABBOTT LABORATORIES, priority 1999, dated 2000)

What was measured:
Experiment in all cases: Agar dilution antibacterial MIC assay
Format in all cases: cell-based
[1] = test system: Staphylococcus aureus ATCC 6538P; conditions: organism code AA, BHI agar, 35-37 °C, 20 to 24 hours, unit assumed
Experimental: (§1) Representative compounds of the present invention were assayed in vitro for antibacterial activity as follows: Twelve petri dishes containing successive aqueous dilutions of the test compound mixed with 10 mL of sterilized Brain Heart Infusion (BHI) agar (Difco 0418-01-5) were prepared. Each plate was inoculated with 1:100 (or 1:10 for slow-growing strains, such as Micrococcus and Streptococcus) dilutions of up to 32 different microorganisms, using a Steers replicator block. […] In addition, a control plate, using BHI agar containing no test compound, was prepared and incubated at the beginning and end of each test.
(§2) An additional plate containing a compound having known susceptibility patterns for the organisms being tested and belonging to the same antibiotic class as the test compound was also prepared and incubated as a further control, as well as to provide test-to-test comparability.
(§3) After incubation, each plate was visually inspected. The minimum inhibitory concentration (MIC) was defined as the lowest concentration of drug yielding no growth, a slight haze, or sparsely isolated colonies on the inoculum spot as compared to the growth control.

[2] = test system: Streptococcus agalactiae CMX 508; conditions: organism code KK, BHI agar, 35-37 °C, 20 to 24 hours, unit assumed
Experimental: as §1, §2, §3

[3] = test system: Streptococcus Pneumonia GYR 1171; conditions: organism code YY, BHI agar, 35-37 °C, 20 to 24 hours, unit assumed
Experimental: as §1, §2, §3

[4] = test system: Staphylococcus epidermidis 3519; conditions: organism code HH, BHI agar, 35-37 °C, 20 to 24 hours, unit assumed
Experimental: as §1, §2, §3

[5] = test system: Micrococcus luteus ATCC 4698; conditions: organism code PP, BHI agar, 35-37 °C, 20 to 24 hours, unit assumed
Experimental: as §1, §2, §3

Candida albicans CCH 442 = conditions: organism code TT, BHI agar, 35-37 °C, 20 to 24 hours, unit assumed
Experimental: as §1, §2, §3

[6] = test system: Staphylococcus aureus CMX 642A; conditions: organism code DD, BHI agar, 35-37 °C, 20 to 24 hours, unit assumed
Experimental: as §1, §2, §3

[7] = test system: Staphylococcus aureus A5177; conditions: organism code BB, BHI agar, 35-37 °C, 20 to 24 hours, unit assumed
Experimental: as §1, §2, §3

[8] = test system: Streptococcus pyogenes EES61; conditions: organism code LL, BHI agar, 35-37 °C, 20 to 24 hours, unit assumed
Experimental: as §1, §2, §3

[9] = test system: Staphylococcus aureus A-5278; conditions: organism code CC, BHI agar, 35-37 °C, 20 to 24 hours, unit assumed
Experimental: as §1, §2, §3

[10] = test system: Haemophilis Influenzae DILL AMP R; conditions: organism code WW, BHI agar, 35-37 °C, 20 to 24 hours, unit assumed
Experimental: as §1, §2, §3

[11] = test system: Streptococcus Pneumonia 5979; conditions: organism code ZZ, BHI agar, 35-37 °C, 20 to 24 hours, unit assumed
Experimental: as §1, §2, §3

[12] = test system: Streptococcus bovis A-5169; conditions: organism code JJ, BHI agar, 35-37 °C, 20 to 24 hours, unit assumed
Experimental: as §1, §2, §3

[13] = test system: Nocardia Asteroides ATCC9970; conditions: organism code VV, BHI agar, 35-37 °C, 20 to 24 hours, unit assumed
Experimental: as §1, §2, §3

[14] = test system: Mycobacterium smegmatis ATCC 114; conditions: organism code UU, BHI agar, 35-37 °C, 20 to 24 hours, unit assumed
Experimental: as §1, §2, §3

Escherichia coli SS = conditions: organism code RR, BHI agar, 35-37 °C, 20 to 24 hours, unit assumed
Experimental: as §1, §2, §3

Escherichia coli JUHL = conditions: organism code QQ, BHI agar, 35-37 °C, 20 to 24 hours, unit assumed
Experimental: as §1, §2, §3

[15] = test system: Streptococcus Pneumonia 5649; conditions: organism code ZZA, BHI agar, 35-37 °C, 20 to 24 hours, unit assumed
Experimental: as §1, §2, §3

[16] = test system: Streptococcus pyogenes PIU 2548; conditions: organism code NN, BHI agar, 35-37 °C, 20 to 24 hours, unit assumed
Experimental: as §1, §2, §3

[17] = test system: Streptococcus pyogenes 930; conditions: organism code MM, BHI agar, 35-37 °C, 20 to 24 hours, unit assumed
Experimental: as §1, §2, §3

[18] = test system: Streptococcus Pneumonia ATCC6303; conditions: organism code XX, BHI agar, 35-37 °C, 20 to 24 hours, unit assumed
Experimental: as §1, §2, §3

[19] = test system: Staphylococcus aureus 1775; conditions: organism code GG, BHI agar, 35-37 °C, 20 to 24 hours, unit assumed
Experimental: as §1, §2, §3

[20] = test system: Staphylococcus aureus NCTC10649M; conditions: organism code EE, BHI agar, 35-37 °C, 20 to 24 hours, unit assumed
Experimental: as §1, §2, §3

Molecule | MIC [1] [µg/mL] | MIC [2] [µg/mL] | MIC [3] [µg/mL] | MIC [4] [µg/mL] | MIC [5] [µg/mL] | MIC (Candida albicans CCH 442) [µg/mL] | MIC [7] [µg/mL] | MIC [8] [µg/mL] | MIC [9] [µg/mL] | MIC [10] [µg/mL] | MIC [11] [µg/mL] | MIC [12] [µg/mL] | MIC [13] [µg/mL] | MIC [14] [µg/mL] | MIC (Escherichia coli SS) [µg/mL] | MIC (Escherichia coli JUHL) [µg/mL] | MIC [15] [µg/mL] | MIC [16] [µg/mL] | MIC [17] [µg/mL] | MIC [18] [µg/mL] | other results
CC[C@H]1OC(=O)[C@H](C)C(=O)[C@H](C)[C@@H](O[C@@H]2O[C@H](C)C[C@H](N(C)C)[C@H]2O)[C@](C)(OCC#Cc2ccc(-c3ccncc3)s2)C[C@@H](C)C(=O)[C@H](C)[C@H]2NC(=O)O[C@@]21C [Example 3, Compound of Formula I: R^b is H, L is -C(O)-, T is -NH-, R is-(CH2)-C≡C-(5-(4-pyridyl)-2-thienyl)] | 0.05 | ≤ 0.05 | ≤ 0.004 | > 100 | 0.05 | > 100 | 0.05 | ≤ 0.05 | > 100 | 2 | 2 | ≤ 0.05 | 0.01 | 0.039 | 0.2 | 100 | 0.125 | 0.1 | 6.2 | ≤ 0.004 | MIC [6]: 0.1 µg/mL
CC[C@H]1OC(=O)[C@H](C)C(=O)[C@H](C)[C@@H](O[C@@H]2O[C@H](C)C[C@H](N(C)C)[C@H]2O)[C@](C)(OCC#Cc2ccc(-c3ccccn3)s2)C[C@@H](C)C(=O)[C@H](C)[C@H]2N(N)C(=O)O[C@]12C [Example 5, Compound of Formula I: R^b is H, L is -C(O)-, T is -N(W-R^d)-, W is -NH-, R^d is H, R is-(CH2)-C≡C-(5-(2-pyridyl)-2-thienyl)] | 0.05 | ≤ 0.005 | 0.015 | 0.1 | 0.1 | > 100 | 0.05 | 0.01 | > 100 | 2 | 2 | ≤ 0.005 | 0.01 | 1.56 | 0.2 | 25 | 0.25 | 0.39 | 50 | 0.015 | MIC [19]: > 100 µg/mL; MIC [20]: 0.1 µg/mL
Compound of Formula II: R^b is H, R is -(CH2)-C≡C-(5-(2-pyridyl)-2-thienyl) [Example 4] | 0.05 | 0.05 | ≤ 0.004 | 0.1 | 0.2 | > 100 | 0.1 | 0.02 | > 100 | 4 | 4 | 0.01 | 0.02 | 0.2 | 0.39 | 25 | 0.25 | 0.2 | 6.2 | ≤ 0.004 | MIC [19]: > 100 µg/mL; MIC [20]: 0.2 µg/mL
